{"source": "patent US10718782B2", "about": "“Method of evaluating cellulite and method of evaluating cellulite-effective drug using fibulin-3 and/or sarcoglycan gamma as an indicator” (Shiseido Company, Ltd., priority 2012, dated 2020)", "key": {"[1]": {"system": "sarcoglycan gamma", "assay": "Addition of known cellulite-improving drugs to cultured fibroblasts, sarcoglycan gamma expression by quantitative PCR", "assay_type": "cell-based", "conditions": "fibroblasts derived from human skin tissue, serum-free medium, 24 hours; conjugated linoleic acid 0.001% and 0.01% v/v, nicotinamide 0.0005% and 0.005% v/v; mRNA vs control", "procedure": "(§1) Quantitative RT-PCR was carried out by using synthesized cDNA as the template, and further by using a reaction reagent LightCycler (registered trademark) FastStart DNA MasterPlus SYBR Green (Roche), and a reaction instrument LightCycler (Roche) or AB 7900 HT Fast Real-Time PCR System (Applied Biosystems). The condition for composition was as described in Roche's protocol. The annealing temperature of the primers was set at 60° C., and quantitated by using ΔΔCt method.\n(§2) Fibroblasts derived from human skin tissue were plated in a 24-well type I collagen-coated dish (IWAKI), and cultured to 70-80% confluence in a 10% bovine fetal serum-supplemented DMEM (Gibco/Invitrogen) under the condition of 37° C. and 5% CO2. After replacing with a serum-free medium for half a day, it was further replaced with a serum-free medium with varying concentrations of conjugated linoleic acid (Sigma) (0.001% v/v, 0.01% v/v) or nicotinamide (Sigma) (0.0005% v/v, 0.005% v/v). 24 hours later, RNA was recovered by using RNeasy mini kit (Qiagen) according to Qiagen's protocol. As a control, RNA prepared and recovered by substituting the medium with an intact serum-free medium, and recovering RNA 24 hours later was used. The concentration of the recovered RNA was determined using a nucleic acid quantitation instrument Nanodrop (Thermo Scientific). […]"}, "[2]": {"system": "cellulite", "conditions": "applied on the affected cellulite site; Patent Literature 1 and 2, Non-patent Literature 8; cited from earlier work"}, "[3]": {"system": "fibulin-3", "assay": "Addition of known cellulite-improving drugs to cultured fibroblasts, fibulin-3 expression by quantitative PCR", "assay_type": "cell-based", "conditions": "fibroblasts derived from human skin tissue, serum-free medium, 24 hours; conjugated linoleic acid 0.001% and 0.01% v/v, nicotinamide 0.0005% and 0.005% v/v; mRNA vs control", "procedure": "as §1, §2"}}, "data": [{"molecule": "NC(=O)c1cccnc1", "note": "[nicotinamide]", "values": [{"measurement": "expression of sarcoglycan gamma", "setting": "[1]", "result": "enhanced the expression of fibulin-3 and sarcoglycan in a dose-dependent manner"}, {"measurement": "alleviation of cellulite", "setting": "[2]", "result": "alleviate cellulite"}, {"measurement": "expression of fibulin-3", "setting": "[3]", "result": "enhanced the expression of fibulin-3 and sarcoglycan in a dose-dependent manner"}]}, {"molecule": "conjugated linoleic acid", "values": [{"measurement": "expression of sarcoglycan gamma", "setting": "[1]", "result": "enhanced the expression of fibulin-3 and sarcoglycan in a dose-dependent manner"}, {"measurement": "alleviation of cellulite", "setting": "[2]", "result": "alleviate cellulite"}, {"measurement": "expression of fibulin-3", "setting": "[3]", "result": "enhanced the expression of fibulin-3 and sarcoglycan in a dose-dependent manner"}]}, {"molecule": "sulfocarbiose", "values": [{"measurement": "alleviation of cellulite", "setting": "[2]", "result": "alleviate cellulite"}]}]}
